Experiment: MEK solubility of the dyes
Type: physicochemical
Details: solubility in methyl ethyl ketone at 20° C.
Procedure: In the present disclosure, the “oil-soluble dye” means a dye having a solubility of 5 mass % or greater in methyl ethyl ketone at 20° C. (hereinafter, also referred to as “MEK solubility”).

| MEK Solubility | Structure (SMILES) |
| --- | --- |
| 10 mass % | CCCCCCCCN(CCCCCCCC)CCS(=O)(=O)c1ccc(/N=N/c2c(S(=O)(=O)O)cc3cc(S(=O)(=O)O)c(/N=N/c4ccc(S(=O)(=O)CCN(CCCCCCCC)CCCCCCCC)cc4)c(O)c3c2N)cc1 [d-9] |
| 7 mass % | CC(C)CNCCS(=O)(=O)c1ccc(/N=N/c2c(S(=O)(=O)O)cc3cc(S(=O)(=O)O)c(/N=N/c4ccc(S(=O)(=O)CCNCC(C)C)cc4)c(O)c3c2N)cc1 [d-5] |
| 10 mass % | CCCCCCN(CCCCCC)CCS(=O)(=O)c1ccc(/N=N/c2c(S(=O)(=O)O)cc3cc(S(=O)(=O)O)c(/N=N/c4ccc(S(=O)(=O)CCN(CCCCCC)CCCCCC)cc4)c(O)c3c2N)cc1 [d-8] |
| 10 mass % | CCCCC(CC)COCCS(=O)(=O)c1ccc(/N=N/c2c(S(=O)(=O)O)cc3cc(S(=O)(=O)O)c(/N=N/c4ccc(S(=O)(=O)CCOCC(CC)CCCC)cc4)c(O)c3c2N)cc1 (stereo not drawn) [d-2] |
| 10 mass % | CCCCCCCCCCCCSCCS(=O)(=O)c1ccc(/N=N/c2c(S(=O)(=O)O)cc3cc(S(=O)(=O)O)c(/N=N/c4ccc(S(=O)(=O)CCSCCCCCCCCCCCC)cc4)c(O)c3c2N)cc1 [d-3] |
| 7 mass % | CCCCN(CCCC)CCS(=O)(=O)c1ccc(/N=N/c2c(S(=O)(=O)O)cc3cc(S(=O)(=O)O)c(/N=N/c4ccc(S(=O)(=O)CCN(CCCC)CCCC)cc4)c(O)c3c2N)cc1 [d-7] |
| 10 mass % | CC(C)(C)CC(C)(C)NCCS(=O)(=O)c1ccc(/N=N/c2c(S(=O)(=O)O)cc3cc(S(=O)(=O)O)c(/N=N/c4ccc(S(=O)(=O)CCNC(C)(C)CC(C)(C)C)cc4)c(O)c3c2N)cc1 [d-6] |
| 10 mass % | CCCCC(CC)COCCCNCCS(=O)(=O)c1ccc(/N=N/c2c(S(=O)(=O)O)cc3cc(S(=O)(=O)O)c(/N=N/c4ccc(S(=O)(=O)CCNCCCOCC(CC)CCCC)cc4)c(O)c3c2N)cc1 (stereo not drawn) [d-4] |

Reference: patent US20220213341A1, “COLORED RESIN PARTICLE DISPERSION, INK, INK SET, INK JET TEXTILE PRINTING METHOD, MANUFACTURING METHOD OF OIL-SOLUBLE DYE, AND PRINTED TEXTILE PRODUCT” (FUJIFILM CORPORATION, priority 2019, published 2022)
